Values quoted from earlier work as cited in patent US20250281435A1, “CHEWABLE GUMMY CONTAINING BETA-HYDROXY BETA-METHYLBUTYRIC ACID (HMB)” (Concept Matrix Solutions, priority 2024, published 2025).

Conditions: oral ingestion

time of peak plasma concentration after ingestion: 1 to 2 h
Structure (SMILES): CC(C)(O)CC(=O)O [HMB, 3-hydroxy-3-methylbutanoic acid]
